Tests used:
A2780 ovarian cells [1] = assay: A2780 Ovarian Cell Proliferation Assay in Lipid Reduced Medium, with Palmitate (control); assay type: cell-based; details: Homo sapiens, A2780; lipid reduced medium, 25 μM palmitate, 96 h, MTT; read-out: Proliferation A2780 with Palmitate pIC50 (converted)
Outline: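 A2780 cells were seeded in RPMI1640 with 10% FCS, then switched next day to medium with 10% lipid-reduced serum. Compound was added with final 25 μM palmitate, 0.2% fatty-acid-free BSA and 0.2% DMSO, and incubated 96 h at 37 °C. Read-out was MTT absorbance at 544 nm; pIC50 = −log(IC50) from curve fit.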

[2] = target: T1, hFASN enzyme (full length) (Homo sapiens, UniProt P49327); assay: Fatty Acid Synthase (FASN) Inhibition Scintillation Proximity Assay; assay type: biochemical; details: for IC50: mean where tested more than once, ~ = standard error of pIC50 larger than 0.5; for inhibition at 10 µM: read-out: FASN % Effect @1E−05M
T1 construct: 10 μL hFASN enzyme (full length, 300 ng, purified in house); made in house
T1 sequence (P49327 whole entry): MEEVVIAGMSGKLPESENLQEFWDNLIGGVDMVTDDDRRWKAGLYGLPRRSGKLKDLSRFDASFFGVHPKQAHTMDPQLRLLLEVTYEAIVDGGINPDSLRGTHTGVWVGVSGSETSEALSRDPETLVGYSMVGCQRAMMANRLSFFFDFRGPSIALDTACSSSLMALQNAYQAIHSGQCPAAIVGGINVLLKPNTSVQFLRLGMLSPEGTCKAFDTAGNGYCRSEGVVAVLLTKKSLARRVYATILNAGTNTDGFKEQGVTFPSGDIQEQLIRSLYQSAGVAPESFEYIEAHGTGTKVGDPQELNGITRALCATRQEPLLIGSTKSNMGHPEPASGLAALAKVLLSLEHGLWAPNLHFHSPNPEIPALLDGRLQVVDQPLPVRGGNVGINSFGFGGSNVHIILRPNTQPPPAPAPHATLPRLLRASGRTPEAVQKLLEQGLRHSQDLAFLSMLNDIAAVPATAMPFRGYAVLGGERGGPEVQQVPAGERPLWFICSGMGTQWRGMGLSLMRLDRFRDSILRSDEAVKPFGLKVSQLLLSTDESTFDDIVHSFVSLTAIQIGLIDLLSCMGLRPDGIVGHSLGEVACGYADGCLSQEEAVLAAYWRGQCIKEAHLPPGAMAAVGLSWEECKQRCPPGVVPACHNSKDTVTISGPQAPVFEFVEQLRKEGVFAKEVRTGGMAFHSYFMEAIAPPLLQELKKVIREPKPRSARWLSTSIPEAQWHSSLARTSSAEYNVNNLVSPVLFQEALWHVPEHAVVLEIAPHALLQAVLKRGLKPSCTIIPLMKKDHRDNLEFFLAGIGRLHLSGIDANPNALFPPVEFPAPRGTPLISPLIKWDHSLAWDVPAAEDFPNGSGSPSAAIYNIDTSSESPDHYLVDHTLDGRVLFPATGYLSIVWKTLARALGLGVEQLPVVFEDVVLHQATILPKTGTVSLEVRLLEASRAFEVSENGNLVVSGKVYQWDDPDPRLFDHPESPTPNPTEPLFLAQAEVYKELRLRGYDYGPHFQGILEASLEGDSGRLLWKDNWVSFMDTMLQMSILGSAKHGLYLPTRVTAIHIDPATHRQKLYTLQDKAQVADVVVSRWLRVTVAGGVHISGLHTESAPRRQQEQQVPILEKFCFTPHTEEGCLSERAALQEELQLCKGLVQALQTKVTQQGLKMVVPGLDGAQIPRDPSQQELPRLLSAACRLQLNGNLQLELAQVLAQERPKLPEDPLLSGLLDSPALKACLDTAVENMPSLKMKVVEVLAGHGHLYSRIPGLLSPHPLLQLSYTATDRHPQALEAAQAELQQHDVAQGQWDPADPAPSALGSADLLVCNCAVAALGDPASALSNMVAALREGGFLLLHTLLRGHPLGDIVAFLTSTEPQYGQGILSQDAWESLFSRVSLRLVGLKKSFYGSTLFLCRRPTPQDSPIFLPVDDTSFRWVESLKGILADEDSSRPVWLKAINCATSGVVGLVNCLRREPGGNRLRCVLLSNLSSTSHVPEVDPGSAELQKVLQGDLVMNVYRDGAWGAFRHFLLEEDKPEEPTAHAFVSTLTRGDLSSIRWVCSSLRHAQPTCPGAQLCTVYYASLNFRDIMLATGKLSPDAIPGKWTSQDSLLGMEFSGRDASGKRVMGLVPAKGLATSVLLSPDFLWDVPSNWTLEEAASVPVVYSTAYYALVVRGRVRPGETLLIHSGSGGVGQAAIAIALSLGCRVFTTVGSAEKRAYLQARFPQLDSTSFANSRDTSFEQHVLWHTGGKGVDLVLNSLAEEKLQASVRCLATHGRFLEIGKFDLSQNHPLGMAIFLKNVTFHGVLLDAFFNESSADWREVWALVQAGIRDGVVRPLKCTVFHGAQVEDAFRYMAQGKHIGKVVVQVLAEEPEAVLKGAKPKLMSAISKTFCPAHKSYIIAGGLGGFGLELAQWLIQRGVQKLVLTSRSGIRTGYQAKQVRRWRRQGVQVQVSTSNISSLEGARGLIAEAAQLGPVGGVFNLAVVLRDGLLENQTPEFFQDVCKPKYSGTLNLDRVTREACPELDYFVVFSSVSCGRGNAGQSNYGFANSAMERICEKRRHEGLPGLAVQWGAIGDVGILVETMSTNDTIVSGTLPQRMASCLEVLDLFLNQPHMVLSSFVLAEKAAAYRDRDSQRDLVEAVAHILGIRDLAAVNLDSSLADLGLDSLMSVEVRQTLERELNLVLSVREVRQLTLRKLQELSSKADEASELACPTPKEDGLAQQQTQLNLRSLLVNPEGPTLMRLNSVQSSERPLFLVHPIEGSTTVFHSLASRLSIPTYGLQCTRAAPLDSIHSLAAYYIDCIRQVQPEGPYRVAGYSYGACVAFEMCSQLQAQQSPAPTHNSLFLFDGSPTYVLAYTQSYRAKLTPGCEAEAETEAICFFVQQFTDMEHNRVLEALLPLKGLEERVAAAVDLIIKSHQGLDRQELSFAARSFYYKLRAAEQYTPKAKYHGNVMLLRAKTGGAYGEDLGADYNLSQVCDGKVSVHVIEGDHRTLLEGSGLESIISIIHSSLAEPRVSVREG
Outline: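 Purified full-length human FASN (300 ng) incubated 60 min at room temperature with NADPH, [3H]-acetyl-CoA and malonyl-CoA in 100 mM KH2PO4 pH 7.5, 1 mM DTT; compound at 30 μM to 0.01 μM. [3H]-palmitate captured by SPA imaging beads; IC50 from 4-parameter fit, reported as pIC50.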

[3] = target: T2, FASN Keto-reductase Domain (Homo sapiens, UniProt P49327); assay: Fatty Acid Synthase Keto-Reductase Domain (FASN KR) Inhibition; assay type: biochemical; details: mean where tested more than once; read-out: FASN K-R Domain pIC50 (converted)
T2 construct: 10 μL hFASN enzyme (full length, 300 ng, purified in house) and 360 μM NADPH; made in house
T2 sequence (P49327 whole entry, the tested form may be a part): as the sequence (P49327 whole entry) above
Outline: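 Full-length human FASN (300 ng) in 100 mM KH2PO4 pH 7.5 with 360 μM NADPH and 180 mM ethyl acetoacetate (stock); A340 decrease read over 20 min at room temperature.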

A2780 ovarian cells [4] = assay: A2780 Ovarian Cell Proliferation Assay in Lipid Reduced Medium, without Palmitate; assay type: cell-based; details: Homo sapiens, A2780; lipid reduced medium, without palmitate, 96 h, MTT; read-out: Proliferation A2780 w/o Palmitate pIC50 (converted)
Outline: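 A2780 cells were seeded in 10% FCS medium and switched next day to 10% lipid-reduced serum without palmitate. Compounds at 0.01–30 μM were added with 0.2% DMSO, 0.2% fatty-acid-free BSA and 0.25% ethanol final. After 96 h, MTT absorbance at 544 nm was normalized to plate controls, and IC50/pIC50 came from a 4-parameter logistic fit.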

Row | IC50 (A2780 ovarian cells [1]) | IC50 [2] | inhibition at 10 µM [2] | IC50 [3] | IC50 (A2780 ovarian cells [4]) | Structure (SMILES)
1 | ~10000 nM | 42.7 nM | 103% | 53.7 nM | 18.2 nM | Cc1ccc(C(=O)N2CCC(c3ccc(-c4cnn(C5CC5)c4)cc3)CC2)cc1NC(=O)c1ccc(NC(C)C)nc1 [Compound 254, N-(5-(4-(4-(1-cyclopropyl-1H-pyrazol-4-yl)phenyl)piperidine-1-carbonyl)-2-methylphenyl)-6-(isopropylamino)nicotinamide]
2 | 3720 nM | 21.4 nM | 101% | 38.9 nM | 24 nM | Cc1ccc(C(=O)N2CCC(c3ccc(-c4cnn(C)c4)cc3)CC2)cc1NC(=O)c1ccncc1F [Compound 161, 3-fluoro-N-(2-methyl-5-(4-(4-(1-methyl-1H-pyrazol-4-yl)phenyl)piperidine-1-carbonyl)phenyl)isonicotinamide]
3 | 2400 nM | 28.8 nM | 112% | 115 nM | 41.7 nM | COc1ccc(C(=O)N2CCC(c3ccc(-c4cnn(C)c4)cc3)CC2)cc1NC(=O)c1ccc(NC(C)C)nc1 [Compound #251, 6-(isopropylamino)-N-(2-methoxy-5-(4-(4-(1-methyl-1H-pyrazol-4-yl)phenyl)piperidine-1-carbonyl)phenyl)nicotinamide]
4 | > 10000 nM | 33.1 nM | 99% | 83.2 nM | 138 nM | Cc1ccc(C(=O)N2CCC(c3ccc(-c4cnn(C)c4)cc3)CC2)cc1NC(=O)c1ccccc1F [Compound 117, 2-fluoro-N-(2-methyl-5-(4-(4-(1-methyl-1H-pyrazol-4-yl)phenyl)piperidine-1-carbonyl)phenyl)benzamide]
5 | 1200 nM | 30.2 nM | 102% | 91.2 nM | 46.8 nM | Cc1cc(C(=O)Nc2cc(C(=O)N3CCC(c4ccc(-c5cnn(C)c5)cc4)CC3)ccc2C)ccn1 [Compound 98, 2-methyl-N-(2-methyl-5-(4-(4-(1-methyl-1H-pyrazol-4-yl)phenyl)piperidine-1-carbonyl)phenyl)isonicotinamide]
6 | > 10000 nM | 28.8 nM | 104% | 47.9 nM | 67.6 nM | COc1ccc(C(=O)Nc2cc(C(=O)N3CCC(c4ccc(-c5cnn(C)c5)cc4)CC3)ccc2C)cn1 [Compound 113, 6-methoxy-N-(2-methyl-5-(4-(4-(1-methyl-1H-pyrazol-4-yl)phenyl)piperidine-1-carbonyl)phenyl)nicotinamide]
7 | 9550 nM | 57.5 nM | 103% | 214 nM | 457 nM | Cc1ccc(C(=O)N2CCC(c3ccc(-c4cnn(C)c4)cc3)CC2)cc1NC(=O)c1sccc1C [Compound 149, 3-methyl-N-(2-methyl-5-(4-(4-(1-methyl-1H-pyrazol-4-yl)phenyl)piperidine-1-carbonyl)phenyl)thiophene-2-carboxamide]
8 | ~10000 nM | 44.7 nM | 95% | 97.7 nM | 145 nM | Cc1ccc(C(=O)N2CCC(c3ccc(-c4cnn(C)c4)cc3)CC2)cc1NC(=O)c1ccc(F)c(F)c1F [Compound 120, 2,3,4-trifluoro-N-(2-methyl-5-(4-(4-(1-methyl-1H-pyrazol-4-yl)phenyl)piperidine-1-carbonyl)phenyl)benzamide]

More lines, now with the values behind:

Row | Structure (SMILES) | IC50 (A2780 ovarian cells [1]) | IC50 [2] | inhibition at 10 µM [2] | IC50 [3] | IC50 (A2780 ovarian cells [4])
9 | CCN1CC(C(=O)Nc2cc(C(=O)N3CCC(c4ccc(-c5cnn(C)c5)cc4)CC3)ccc2C)C1 [Compound 205, 1-ethyl-N-(2-methyl-5-(4-(4-(1-methyl-1H-pyrazol-4-yl)phenyl)piperidine-1-carbonyl)phenyl)azetidine-3-carboxamide] | > 10000 nM | 269 nM | 95% | 589 nM | 355 nM
10 | Cc1ccc(C(=O)N2CC(c3ccc(-c4cnn(C)c4)cc3)C2)cc1NC(=O)c1cnc(N2CCOCC2)nc1 [Compound 159, N-(2-methyl-5-(3-(4-(1-methyl-1H-pyrazol-4-yl)phenyl)azetidine-1-carbonyl)phenyl)-2-morpholinopyrimidine-5-carboxamide] | > 10000 nM | 22.9 nM | 104% | 33.9 nM | ~5.75 nM
11 | Cc1ccc(C(=O)N2CCC(c3ccc(-c4ccsc4)cc3)CC2)cc1NC(=O)c1ccc(NC(C)C)nc1 [Compound 223, 6-(isopropylamino)-N-(2-methyl-5-(4-(4-(thiophen-3-yl)phenyl)piperidine-1-carbonyl)phenyl)nicotinamide] | 2040 nM | 69.2 nM | 102% | 141 nM | 148 nM
12 | CCCCCCN1CC(C(=O)Nc2cc(C(=O)N3CCC(c4ccc(-c5cnn(C)c5)cc4)CC3)ccc2C)C1 [Compound 243, 1-hexyl-N-(2-methyl-5-(4-(4-(1-methyl-1H-pyrazol-4-yl)phenyl)piperidine-1-carbonyl)phenyl)azetidine-3-carboxamide] | 7080 nM | 129 nM | 105% | 186 nM | 240 nM
13 | Cc1ccc(C(=O)N2CC(c3ccc(-c4ccc5cnn(C)c5c4)cc3)C2)cc1NC(=O)c1ccc(NC(C)C)nc1 [Compound #36, 6-(isopropylamino)-N-(2-methyl-5-(3-(4-(1-methyl-1H-indazol-6-yl)phenyl)azetidine-1-carbonyl)phenyl)nicotinamide] | 2190 nM | 43.7 nM | 106% | 27.5 nM | ~74.1 nM
14 | CCC(=O)N[C@@H]1CC[C@H](C(=O)Nc2cc(C(=O)N3CCC(c4ccc(-c5ccnn5C)cc4)CC3)ccc2C)C1 [Compound 13, (1S,3R)—N-(2-methyl-5-(4-(4-(1-methyl-1H-pyrazol-5-yl)phenyl)piperidine-1-carbonyl)phenyl)-3-propionamidocyclopentanecarboxamide] | > 10000 nM | 126 nM | 99% | 229 nM | 603 nM
15 | Cc1ccc(C(=O)N2CC(c3ccc(-c4ccncc4N)cc3)C2)cc1NC(=O)c1ccc(N2CCOCC2)nc1 [Compound 265, N-(5-(3-(4-(3-aminopyridin-4-yl)phenyl)azetidine-1-carbonyl)-2-methylphenyl)-6-morpholinonicotinamide] | > 10000 nM | 21.9 nM | 110% | 60.3 nM | 20.9 nM
16 | Cc1ccc(C(=O)N2CCC(c3ccc4c(c3)CC(=O)N4)CC2)cc1NC(=O)c1ccc(Cl)nc1 [Compound 50, 6-chloro-N-(2-methyl-5-(4-(2-oxoindolin-5-yl)piperidine-1-carbonyl)phenyl)nicotinamide] | > 10000 nM | 309 nM | 93% | 603 nM | 1230 nM
17 | Cc1ccc(C(=O)N2CCC(c3ccc4ccncc4c3)CC2)cc1NC(=O)c1ccc(NC(C)C)nc1 [Compound 28, 6-(isopropylamino)-N-(5-(4-(isoquinolin-7-yl)piperidine-1-carbonyl)-2-methylphenyl)nicotinamide] | 2450 nM | 174 nM | 101% | 282 nM | ~204 nM
18 | Cc1ccc(C(=O)N2CC[C@H](c3ccc(-c4ccnn4C)cc3)[C@@H](C)C2)cc1NC(=O)c1ccc(NC(C)C)nc1 (racemic) [Compound #81, (±)-6-(isopropylamino)-N-(2-methyl-5-((3R,4S)-3-methyl-4-(4-(1-methyl-1H-pyrazol-5-yl)phenyl)piperidine-1-carbonyl)phenyl)nicotinamide] | 4270 nM | ~32.4 nM | 120% | 100 nM | 110 nM
19 | Cc1ccc(C(=O)N2CCC(c3ccc(-c4cnn(C)c4)cc3)CC2)cc1NC(=O)C1CCN(C2CCCCC2)CC1 [Compound 177, 1-cyclohexyl-N-(2-methyl-5-(4-(4-(1-methyl-1H-pyrazol-4-yl)phenyl)piperidine-1-carbonyl)phenyl)piperidine-4-carboxamide] | > 10000 nM | 25.7 nM | 112% | 50.1 nM | 13.8 nM
20 | CCCCCN1CCC(C(=O)Nc2cc(C(=O)N3CCC(c4ccc(-c5cnn(C)c5)cc4)CC3)ccc2C)CC1 [Compound 176, N-(2-methyl-5-(4-(4-(1-methyl-1H-pyrazol-4-yl)phenyl)piperidine-1-carbonyl)phenyl)-1-pentylpiperidine-4-carboxamide] | ~10000 nM | 33.9 nM | 110% | 105 nM | 53.7 nM

— patent US9562035B2, “Benzamide derivative useful as FASN inhibitors for the treatment of cancer” (Janssen Pharmaceutica NV, priority 2013, dated 2017)
